According to ChEMBL document CHEMBL3407483, “Novel 3-nitrotriazole-based amides and carbinols as bifunctional antichagasic agents” (J Med Chem, 2015):
Active and inactive are the calls of the source. The rule behind the calls is not given here.

What was measured:
L6 = assay: Cytotoxicity against rat L6 cells assessed as growth inhibition after 72 hrs by Alamar Blue assay; format: cell-based; details: L6, 72 h
[1] = Selectivity index, ratio of IC50 for rat L6 cells to IC50 for amastigote stage of Trypanosoma cruzi Tulahuen C4 infected in rat L6 cells; format: toxicity, cell-based; details: read-out: Ratio IC50
[2] = system: Trypanosoma brucei rhodesiense; assay: Antitrypanosomal activity against trypomastigote stage of Trypanosoma brucei rhodesiense STIB 900 assessed as parasite growth inhibition after 72 hrs by Alamar Blue assay; format: functional, organism-based; details: STIB 900, 72 h
Trypanosoma cruzi [3] = assay: Antitrypanosomal activity against amastigote stage of Trypanosoma cruzi Tulahuen C4 infected in rat L6 cells assessed as parasite growth inhibition after 96 hrs by colorimetric analysis; format: functional, organism-based; details: Tulahuen C4, L6, 96 h
Trypanosoma brucei = assay: Activity of his-tagged recombinant Trypanosoma brucei type-1 nitroreductase assessed as oxidized NADH level per mg of protein after 5 mins by absorption spectrum analysis
Trypanosoma cruzi [4] = assay: Antichagasic activity against trypomastigote stage of Trypanosoma cruzi Brazil infected in Balb/c mouse assessed as parasite index at 15 mg/kg/day, ip measured after 5 days by luciferase reporter gene assay; format: functional; details: route intraperitoneal
Trypanosoma cruzi [5] = assay: Activity of his-tagged recombinant Trypanosoma cruzi type-1 nitroreductase assessed as oxidized NADH level per mg of protein after 5 mins by absorption spectrum analysis
Mus musculus [6] = assay: Toxicity in Balb/c mouse at 15 mg/kg/day, ip measured after 5 to 10 days; format: organism-based; set-up: route intraperitoneal; details: in vivo
Trypanosoma cruzi [7] = assay: Antichagasic activity against trypomastigote stage of Trypanosoma cruzi Brazil infected in Balb/c mouse assessed as reduction of parasite index at 15 mg/kg/day, ip measured after 10 days by luciferase reporter gene assay relative to control; format: functional; set-up: scale not given: the % may be the effect or the level left; details: route intraperitoneal
[8] = molecular target: Sterol 14-alpha demethylase (Trypanosoma cruzi (strain CL Brener), UniProt Q7Z1V1); assay: Binding affinity to recombinant full-length Trypanosoma cruzi CYP51 by UV-spectrophotometric analysis; details: read-out: Kd(app)
[9] = Selectivity index, ratio of IC50 for rat L6 cells to IC50 for trypomastigote stage of Trypanosoma brucei rhodesiense STIB 900; format: toxicity, cell-based; details: read-out: Ratio IC50
[10] = system: Trypanosoma brucei brucei; assay: Selectivity ratio of IC50 for bloodstream form of Trypanosoma brucei brucei to IC50 for bloodstream form of Trypanosoma brucei brucei overexpressing type-1 nitroreductase; format: functional
[11] = system: Trypanosoma brucei brucei; assay: Antitrypanosomal activity against bloodstream form of Trypanosoma brucei brucei; format: functional, organism-based
[12] = Metabolic stability in mouse microsomes assessed as compound remaining at 1 uM after 60 mins by LC/MS/MS analysis in absence of NADPH; format: ADME, Microsome; details: read-out: Stability
[13] = system: Trypanosoma brucei brucei; assay: Antitrypanosomal activity against bloodstream form of Trypanosoma brucei brucei overexpressing type-1 nitroreductase; format: functional, organism-based
Trypanosoma cruzi [14] = assay: Antichagasic activity against trypomastigote stage of Trypanosoma cruzi Brazil infected in Balb/c mouse assessed as reduction of parasite level at 15 mg/kg/day, ip measured after 5 days by luciferase reporter gene assay; format: functional, organism-based
[15] = Apparent permeability across apical to basolateral side in human Caco2 cells at 10 uM after 2 hrs by LC/MS/MS analysis; format: ADME, cell-based; details: caco-2, 2 h
[16] = Metabolic stability in mouse microsomes assessed as compound remaining at 1 uM after 60 mins by LC/MS/MS analysis in presence of NADPH; format: ADME, Microsome; details: read-out: Stability
[17] = Metabolic stability in human microsomes assessed as compound remaining at 1 uM after 60 mins by LC/MS/MS analysis in presence of NADPH; format: ADME, Microsome; details: read-out: Stability
[18] = Metabolic stability in human microsomes assessed as compound remaining at 1 uM after 60 mins by LC/MS/MS analysis in absence of NADPH; format: ADME, Microsome; details: read-out: Stability
Mus musculus [19] = assay: Toxicity in Balb/c mouse at 13 mg/kg/day, ip measured after 5 to 10 days; format: organism-based; set-up: route intraperitoneal; details: in vivo
Trypanosoma cruzi [20] = assay: Antichagasic activity against trypomastigote stage of Trypanosoma cruzi Brazil infected in Balb/c mouse assessed as reduction of parasite level at 13 mg/kg/day, ip measured after 5 days by luciferase reporter gene assay; format: functional, organism-based
Trypanosoma cruzi [21] = assay: Potency index, ratio of benznidazole IC50 to compound IC50 for amastigote stage of Trypanosoma cruzi Tulahuen C4 infected in rat L6 cells; format: functional
Trypanosoma cruzi [22] = assay: Antichagasic activity against trypomastigote stage of Trypanosoma cruzi Brazil infected in Balb/c mouse assessed as reduction of parasite index at 13 mg/kg/day, ip measured after 10 days by luciferase reporter gene assay relative to control; format: functional; set-up: scale not given: the % may be the effect or the level left; details: route intraperitoneal

Sterol 14-alpha demethylase, sequence (Q7Z1V1 whole entry): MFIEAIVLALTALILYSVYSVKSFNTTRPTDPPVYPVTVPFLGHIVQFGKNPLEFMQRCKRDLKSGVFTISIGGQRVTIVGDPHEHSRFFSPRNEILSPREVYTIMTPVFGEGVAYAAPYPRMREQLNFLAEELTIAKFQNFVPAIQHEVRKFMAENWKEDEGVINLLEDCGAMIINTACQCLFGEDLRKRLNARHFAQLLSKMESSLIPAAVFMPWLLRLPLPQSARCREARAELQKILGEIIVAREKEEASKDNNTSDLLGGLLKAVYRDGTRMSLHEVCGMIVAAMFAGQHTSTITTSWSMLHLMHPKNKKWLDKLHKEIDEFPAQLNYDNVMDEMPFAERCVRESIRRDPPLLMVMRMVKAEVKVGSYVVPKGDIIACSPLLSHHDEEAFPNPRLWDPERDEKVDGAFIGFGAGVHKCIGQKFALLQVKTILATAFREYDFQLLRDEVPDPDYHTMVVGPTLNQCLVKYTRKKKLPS

SMILES	IC50 (L6) [µM]	selectivity ratio [1]	IC50 [2] [µM]	IC50 (Trypanosoma cruzi [3]) [nM]	selectivity ratio [9]	other results
O=C(Cn1cnc([N+](=O)[O-])n1)Nc1nnc(-c2ccc(Cl)cc2)s1	> 274	> 16.5	73.9	16600	–	–
O=C(Cn1cnc([N+](=O)[O-])n1)c1ccc(F)cc1F	246	206	34.1	1190	–	–
O=[N+]([O-])c1ncn(CC(O)(Cn2cncn2)c2ccc(F)cc2F)n1 (centres undefined)	258	220	26.6	1170	–	Activity (Trypanosoma brucei): 3060 nmol/min; Activity (Trypanosoma cruzi [4]): 24.9; Activity (Trypanosoma cruzi [5]): 1180 nmol/min; Activity (Mus musculus [6]): Non-toxic; Activity (Trypanosoma cruzi [7]): <4%; Kd [8]: 606 nM
O=C(Cn1ccnc1[N+](=O)[O-])NCc1ccccc1 [BENZNIDAZOLE]	–	–	–	–	–	Activity (Trypanosoma brucei): 1540 nmol/min; Activity (Trypanosoma cruzi [4]): 13.38; Activity (Trypanosoma cruzi [5]): 680 nmol/min; Activity (Mus musculus [6]): Non-toxic; Activity (Trypanosoma cruzi [7]): <4%
Cc1ccc(S(=O)(=O)NC(Cc2ccccc2)Cn2cnc([N+](=O)[O-])n2)cc1 (centres undefined)	145	428	11.6	339	–	–
O=C(Cn1cncn1)c1ccc(-c2ccccc2)cc1	113	4.9	51.7	22800	–	–
O=C(Cn1ccnc1[N+](=O)[O-])c1ccc(-c2ccccc2)cc1	9.7	–	76.5	14200	–	–
CC(O)(Cn1cncn1)c1ccc(-n2ccnc2)cc1 (centres undefined)	> 372	–	153	157000	–	–
CC(O)(Cn1cnc([N+](=O)[O-])n1)c1ccc(-n2ccnc2)cc1 (centres undefined)	> 318	> 97	1.84	3290	> 173	Activity (Trypanosoma brucei): 3460 nmol/min; Activity (Trypanosoma cruzi [5]): 1070 nmol/min
Cc1nc(-c2cccc(NC(=O)Cn3cnc([N+](=O)[O-])n3)c2)cs1	67.3	122	7.04	552	10	–
O=C(Cn1cnc([N+](=O)[O-])n1)Nc1nc(-c2ccc(Cl)cc2)cs1	98.8	973	4.06	102	24	–
O=C(Cn1ccnc1[N+](=O)[O-])Nc1nc(-c2ccc(F)c(F)c2)cs1	62.1	15.6	10	3990	–	–
O=C(Cn1cnc([N+](=O)[O-])n1)Nc1nc(-c2ccc(F)c(F)c2)cs1	88.1	192	16.1	459	–	–
CC(O)(Cn1cnc([N+](=O)[O-])n1)c1ccc(-c2ccccc2)cc1 (centres undefined)	86	844	1.09	102	78.9	–
Fc1ccc(C2(Cn3cncn3)Cn3ccnc3O2)c(F)c1 (centres undefined)	> 286	> 49.4	221	5790	–	–
N#Cc1ccc(-c2ccc(NC(=O)Cn3cnc([N+](=O)[O-])n3)cc2)cc1	165	1190	0.336	138	490	Ratio IC50 [10]: 2; IC50 [11]: 840 nM; remaining at 1 h, 1 µM [12]: 110%; IC50 [13]: 360 nM; Activity (Trypanosoma brucei): 3170 nmol/min; Activity (Trypanosoma cruzi [14]): Active; Papp [15]: 18.7 ×10⁻⁶ cm/s; Activity (Trypanosoma cruzi [5]): 888 nmol/min; Activity (Mus musculus [6]): Non-toxic; Activity (Trypanosoma cruzi [7]): <4%; remaining at 1 h, 1 µM [16]: 79.4%; remaining at 1 h, 1 µM [17]: 96.8%; remaining at 1 h, 1 µM [18]: 84.8%
O=C(Cn1cnc([N+](=O)[O-])n1)Nc1ccc(-c2ccc(Cl)cc2)cc1	126	2800	0.901	45	140	Activity (Mus musculus [19]): Non-toxic; Activity (Trypanosoma cruzi [20]): Active; Ratio IC50 (Trypanosoma cruzi [21]): 45; Activity (Trypanosoma cruzi [22]): <4%
O=C(Cn1cnc([N+](=O)[O-])n1)Nc1ccc(N2CCCCC2)cc1	103	186	17	554	–	–
OC(Cn1cncn1)(Cn1cncn1)c1ccc(F)cc1F [FLUCONAZOLE]	> 294	–	–	9970	–	–
CC1(c2ccc(-n3ccnc3)cc2)CO1 (centres undefined)	277	–	76.2	188000	–	–
CC(O)(Cn1cncn1)c1ccc(-c2ccccc2)cc1 (centres undefined)	114	162	65.6	706	1.74	–
O=C(Cn1cnc([N+](=O)[O-])n1)c1ccc(-c2ccccc2)cc1	220	1160	1.75	188	125	–
O=[N+]([O-])c1ncn(CC(O)(Cn2cncn2)c2ccc(-c3ccccc3)cc2)n1 (centres undefined)	127	3810	2.88	33	44	remaining at 1 h, 1 µM [12]: 102%; Activity (Trypanosoma brucei): 2680 nmol/min; Activity (Trypanosoma cruzi [4]): 42.04; Papp [15]: 16.5 ×10⁻⁶ cm/s; Activity (Trypanosoma cruzi [5]): 1160 nmol/min; Activity (Mus musculus [6]): Non-toxic; Activity (Trypanosoma cruzi [7]): <4%; remaining at 1 h, 1 µM [16]: 77.6%; Ratio IC50 (Trypanosoma cruzi [21]): 68; remaining at 1 h, 1 µM [17]: 90.7%; Kd [8]: 23 nM; remaining at 1 h, 1 µM [18]: 106%
